Assay results from ChEMBL document CHEMBL1201862, “PubChem BioAssay data set” (2004).
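Cultured in 96-well plates, cells were exposed to test compound for 48 hours across five concentrations. At the GI50, growth is halved.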 Active and inactive are the calls of the source. No stated cut-off is given here; in the data, active = GI50 up to about 1.1 µM and inactive = higher.

What was measured:
Assay in all cases: NCI-60 cell line screen, 48 h
UO-31 = system: UO-31
KM-20L2 = system: KM-20L2
OVCAR-8 = system: OVCAR-8
CAKI-1 = system: CAKI-1
NCI-H226 = system: NCI-H226
MOLT-4 = system: MOLT-4
A498 = system: A498
HT-29 = system: HT-29
EKVX = system: EKVX
786-0 = system: 786-0
DMS-273 = system: DMS-273
HCT-15 = system: HCT-15
IGROV-1 = system: IGROV-1
HCC 2998 = system: HCC 2998
NCI-H23 = system: NCI-H23
SF-539 = system: SF-539
TK-10 = system: TK-10
M14 = system: M14
SK-MEL-28 = system: SK-MEL-28
ACHN = system: ACHN
SNB-19 = system: SNB-19
HOP-18 = system: HOP-18
HCT-116 = system: HCT-116
OVCAR-5 = system: OVCAR-5
SK-MEL-5 = system: SK-MEL-5
SK-OV-3 = system: SK-OV-3
UACC-257 = system: UACC-257
RXF 631 = system: RXF 631
COLO 205 = system: COLO 205
SF-268 = system: SF-268
SNB-75 = system: SNB-75
NCI-H522 = system: NCI-H522
OVCAR-4 = system: OVCAR-4
DLD-1 = system: DLD-1
SNB-78 = system: SNB-78
RPMI-8226 = system: RPMI-8226
SN12C = system: SN12C
UACC-62 = system: UACC-62
HOP-92 = system: HOP-92
U-251 = system: U-251
M19-MEL = system: M19-MEL
KM12 = system: KM12
NCI-H460 = system: NCI-H460
Malme-3M = system: Malme-3M
SW-620 = system: SW-620
HL-60 = system: HL-60
OVCAR-3 = system: OVCAR-3
LXFL 529 = system: LXFL 529
HOP-62 = system: HOP-62
SF-295 = system: SF-295
CCRF-CEM = system: CCRF-CEM
K562 = system: K562
DMS-114 = system: DMS-114
A549 = system: A549
LOX IMVI = system: LOX IMVI
RXF 393 = system: RXF 393
SR = system: SR
SK-MEL-2 = system: SK-MEL-2

O=C(CCc1n[nH]c(=S)o1)Nc1ccccc1C(F)(F)F
GI50 (UO-31): > 100 µM (inactive)
GI50 (KM-20L2): > 100 µM (inactive)
GI50 (OVCAR-8): > 100 µM (inactive)
GI50 (CAKI-1): > 100 µM (inactive)
GI50 (NCI-H226): > 100 µM (inactive)
GI50 (MOLT-4): > 100 µM (inactive)
GI50 (A498): > 100 µM (inactive)
GI50 (HT-29): > 100 µM (inactive)
GI50 (EKVX): > 100 µM (inactive)
GI50 (786-0): > 100 µM (inactive)
GI50 (DMS-273): > 100 µM (inactive)
GI50 (HCT-15): 20.2 µM
GI50 (IGROV-1): > 100 µM (inactive)
GI50 (HCC 2998): > 100 µM (inactive)
GI50 (NCI-H23): > 100 µM (inactive)
GI50 (SF-539): > 100 µM (inactive)
GI50 (TK-10): > 100 µM (inactive)
GI50 (M14): > 100 µM (inactive)
GI50 (SK-MEL-28): > 100 µM (inactive)
GI50 (ACHN): > 100 µM (inactive)
GI50 (SNB-19): > 100 µM (inactive)
GI50 (HOP-18): > 100 µM (inactive)
GI50 (HCT-116): > 10 µM (inactive)
GI50 (OVCAR-5): > 100 µM (inactive)
GI50 (SK-MEL-5): > 100 µM (inactive)
GI50 (SK-OV-3): > 100 µM (inactive)
GI50 (UACC-257): > 100 µM (inactive)
GI50 (RXF 631): > 100 µM (inactive)
GI50 (COLO 205): 57.4 µM (inactive)
GI50 (SF-268): > 100 µM (inactive)
GI50 (SNB-75): > 100 µM (inactive)
GI50 (NCI-H522): > 100 µM (inactive)
GI50 (OVCAR-4): > 100 µM (inactive)
GI50 (DLD-1): > 100 µM (inactive)
GI50 (SNB-78): > 100 µM (inactive)
GI50 (RPMI-8226): 25.9 µM (inactive)
GI50 (SN12C): > 100 µM (inactive)
GI50 (UACC-62): > 100 µM (inactive)
GI50 (HOP-92): > 100 µM (inactive)
GI50 (U-251): > 100 µM (inactive)
GI50 (M19-MEL): > 100 µM (inactive)
GI50 (KM12): > 100 µM (inactive)
GI50 (NCI-H460): > 100 µM (inactive)
GI50 (Malme-3M): > 100 µM (inactive)
GI50 (SW-620): 18.2 µM (inactive)
GI50 (HL-60): > 100 µM (inactive)
GI50 (OVCAR-3): > 100 µM (inactive)
GI50 (LXFL 529): > 100 µM (inactive)
GI50 (HOP-62): > 100 µM (inactive)
GI50 (SF-295): > 100 µM (inactive)
GI50 (CCRF-CEM): > 100 µM (inactive)
GI50 (K562): 66.7 µM (inactive)
GI50 (DMS-114): > 100 µM (inactive)

COC1=CC(=C(C#N)/C(=N\c2ccccc2)SC)C=C(OC)C1=O
GI50 (UO-31): 36.5 µM (inactive)
GI50 (OVCAR-8): 31.1 µM (inactive)
GI50 (CAKI-1): > 100 µM (inactive)
GI50 (A549): 78.9 µM (inactive)
GI50 (MOLT-4): 20.8 µM (inactive)
GI50 (A498): 20.9 µM (inactive)
GI50 (HT-29): > 100 µM (inactive)
GI50 (EKVX): > 100 µM (inactive)
GI50 (786-0): 31.6 µM (inactive)
GI50 (DMS-273): 36.1 µM (inactive)
GI50 (HCT-15): 80.7 µM
GI50 (IGROV-1): 86.1 µM (inactive)
GI50 (HCC 2998): 94.8 µM (inactive)
GI50 (NCI-H23): 54.5 µM (inactive)
GI50 (SF-539): > 100 µM (inactive)
GI50 (TK-10): > 100 µM (inactive)
GI50 (M14): > 10 µM (inactive)
GI50 (SK-MEL-28): > 100 µM (inactive)
GI50 (ACHN): 40.8 µM (inactive)
GI50 (HOP-18): > 100 µM (inactive)
GI50 (HCT-116): 29.9 µM (inactive)
GI50 (SK-MEL-5): 20.7 µM (inactive)
GI50 (SK-OV-3): > 100 µM (inactive)
GI50 (UACC-257): 56.6 µM (inactive)
GI50 (RXF 631): > 100 µM (inactive)
GI50 (COLO 205): > 100 µM (inactive)
GI50 (SNB-75): 95.3 µM (inactive)
GI50 (NCI-H522): 37.6 µM (inactive)
GI50 (DLD-1): 24.5 µM (inactive)
GI50 (SNB-78): 67.9 µM (inactive)
GI50 (RPMI-8226): 18.8 µM (inactive)
GI50 (SN12C): > 100 µM (inactive)
GI50 (UACC-62): 44.3 µM (inactive)
GI50 (HOP-92): 3.84 µM (inactive)
GI50 (LOX IMVI): 39.5 µM (inactive)
GI50 (U-251): 0.352 µM (active)
GI50 (M19-MEL): 70.6 µM (inactive)
GI50 (KM12): 63.2 µM (inactive)
GI50 (NCI-H460): 70.6 µM (inactive)
GI50 (Malme-3M): > 100 µM (inactive)
GI50 (SW-620): 38.7 µM (inactive)
GI50 (RXF 393): 24.4 µM (inactive)
GI50 (OVCAR-3): 31.2 µM (inactive)
GI50 (LXFL 529): 17.5 µM (inactive)
GI50 (SF-295): 69.2 µM (inactive)
GI50 (CCRF-CEM): 16 µM (inactive)
GI50 (K562): 22.6 µM (inactive)

CC1=C(C(=O)NCc2ccccc2)C(c2ccccc2C)C(C(=O)NCc2ccccc2)=C(C)N1
GI50 (UO-31): 42.8 µM (inactive)
GI50 (KM-20L2): 28.4 µM (inactive)
GI50 (OVCAR-8): 17.9 µM (inactive)
GI50 (CAKI-1): 50.8 µM (inactive)
GI50 (A549): 49.8 µM (inactive)
GI50 (NCI-H226): 30.7 µM (inactive)
GI50 (MOLT-4): 27.1 µM (inactive)
GI50 (A498): 44.3 µM (inactive)
GI50 (HT-29): 27.2 µM (inactive)
GI50 (EKVX): 58.7 µM (inactive)
GI50 (786-0): 25.1 µM (inactive)
GI50 (DMS-273): 27.5 µM (inactive)
GI50 (HCT-15): 17.7 µM
GI50 (IGROV-1): 31.7 µM (inactive)
GI50 (HCC 2998): 28.6 µM (inactive)
GI50 (NCI-H23): 33.1 µM (inactive)
GI50 (SF-539): 24.6 µM (inactive)
GI50 (TK-10): 41.7 µM (inactive)
GI50 (M14): 20.4 µM (inactive)
GI50 (SK-MEL-28): 27.6 µM (inactive)
GI50 (ACHN): 20 µM (inactive)
GI50 (SNB-19): 35.6 µM (inactive)
GI50 (HOP-18): > 53 µM (inactive)
GI50 (HCT-116): 19 µM (inactive)
GI50 (OVCAR-5): 35.9 µM (inactive)
GI50 (SK-MEL-5): 35.5 µM (inactive)
GI50 (SK-OV-3): 91.2 µM (inactive)
GI50 (UACC-257): 10.7 µM (inactive)
GI50 (RXF 631): 42.1 µM (inactive)
GI50 (COLO 205): 38.8 µM (inactive)
GI50 (SF-268): 22.8 µM (inactive)
GI50 (SNB-75): > 43.8 µM (inactive)
GI50 (SR): 24.5 µM (inactive)
GI50 (NCI-H522): 28.4 µM (inactive)
GI50 (OVCAR-4): 27.2 µM (inactive)
GI50 (DLD-1): 20.9 µM (inactive)
GI50 (SNB-78): 33.6 µM (inactive)
GI50 (RPMI-8226): 29.9 µM (inactive)
GI50 (SN12C): 25.5 µM (inactive)
GI50 (SK-MEL-2): 18.5 µM (inactive)
GI50 (UACC-62): 17.2 µM (inactive)
GI50 (HOP-92): 39 µM (inactive)
GI50 (LOX IMVI): 17.7 µM (inactive)
GI50 (U-251): 24.5 µM (inactive)
GI50 (M19-MEL): 33 µM (inactive)
GI50 (KM12): 24.8 µM (inactive)
GI50 (NCI-H460): 19.5 µM (inactive)
GI50 (Malme-3M): 72.6 µM (inactive)
GI50 (SW-620): 38.8 µM (inactive)
GI50 (RXF 393): 23.7 µM (inactive)
GI50 (HL-60): 21 µM (inactive)
GI50 (OVCAR-3): 23.5 µM (inactive)
GI50 (LXFL 529): 29.5 µM (inactive)
GI50 (HOP-62): 29.9 µM (inactive)
GI50 (SF-295): 29.7 µM (inactive)
GI50 (CCRF-CEM): 29.6 µM (inactive)
GI50 (K562): 38.5 µM (inactive)
GI50 (DMS-114): 29.6 µM (inactive)
